In the NIST ThermoML archive (doi:10.1021/je060078g):
± gives the expanded uncertainty stated by the source.

Details: Liquid; pulse-heating method

Compared with `O=C(O)CCCCc1ccccc1` [5-phenylvaleric acid], `O=C(O)CCCCCc1ccccc1` [6-phenylhexanoic acid] is lower in Critical pressure: 2950 ± 100 kPa for the first, 2600 ± 90 kPa for the second.

First: O=C(O)Cc1ccccc1 [phenylacetic acid]
Second: O=C(O)CCc1ccccc1 [3-phenylpropanoic acid]
The Critical pressure of the first is higher: 3950 ± 140 kPa for the first, 3460 ± 120 kPa for the second.

Compared with `O=C(O)CCCc1ccccc1` [4-phenylbutanoic acid], `O=C(O)CCCCCCc1ccccc1` [7-phenylheptanoic acid] is lower in Critical pressure: 3210 ± 110 kPa for the first, 2470 ± 90 kPa for the second.

`O=C(O)CCCCc1ccccc1` [5-phenylvaleric acid] and `O=C(O)CCCCCc1ccccc1` [6-phenylhexanoic acid] are within error of each other in Critical temperature: 790 ± 8 K for the first, 794 ± 8 K for the second.

`O=C(O)Cc1ccccc1` [phenylacetic acid] and `O=C(O)CCc1ccccc1` [3-phenylpropanoic acid] are within error of each other in Critical temperature: 766 ± 8 K for the first, 776 ± 8 K for the second.

`O=C(O)CCCc1ccccc1` [4-phenylbutanoic acid] and `O=C(O)CCCCCCc1ccccc1` [7-phenylheptanoic acid] are within error of each other in Critical temperature: 783 ± 8 K for the first, 798 ± 8 K for the second.
